Laboratory results reported in article PMC6271241, “Several Human Cyclin-Dependent Kinase Inhibitors, Structurally Related to Roscovitine, As New Anti-Malarial Agents” (Molecules, 2014).
Where two headings read alike, the source gives them in different places.

How the values were obtained:
[1] = test system: Pf3D7; assay: [3H]hypoxanthine incorporation growth assay, Pf3D7; assay type: cell-based, Plasmodium falciparum; conditions: Plasmodium falciparum
Protocol: (§1) A selection of 15 molecules 4b–c, 10–13 representing the different 2,6,9-trisubstituted purine series, including newly synthesized products was screened as anti-malarial agents on two different P. falciparum strains, Pf3D7, a standard drug-sensitive African stain, and Pf7G8, a brazilian chloroquino-resistant strain (Figure 3). The compound activity was evaluated during the parasitic erythocytic cycle, by the means of a [^3H] hypoxanthine incorporation assay. It is directly correlated to parasite viability, as described in the experimental section.
(§2) At first, the activity of the fifteen compounds was screened at three different concentrations (10, 50 and 100 µM) on Pf3D7. Chloroquine which is not a kinase inhibitor, but which is the antimalarial reference drug was used as the positive control. […] Chloroquine was again used as a positive control.
(§3) Compounds were tested against synchronous ring-stage parasites of Pf3D7 and Pf7G8 strains. Drugs testing were carried out in 96-well microtiter plates. The chloroquine (CQ) diphosphate was purchased from Sigma (Lyon, France). […] For each assay, each drug dilution was analyzed in triplicate.
(§4) For the in vitro isotopic microtest, 200 µL of the suspension of synchronous parasitized red blood cells with >90% of the parasites at the ring stage (final parasitaemia, 0.3%; final haematocrit, 4%) per well were plated in 96-well plates that contained serial CQ or compounds concentrations. […] The plates were incubated at 37 °C, in an atmosphere of 5% O2, 5% CO2, and 90% N2 for 48 h. Immediately after incubation, plates were frozen and then thawed to lyse the erythrocytes. Cultures were harvested onto glass fiber filters and washed using a cell harvester (FilterMAT; Skatron Instruments, Dalsletta, Norway). The dried fiber filter papers were mixed with 2 mL of scintillation fluid (OptiScint; Perkin-Elmer, Waltham, UK). […] The initial value and the asymptotic result for high concentrations were fixed to 0% and 100%, respectively, available on the web.

[2] = test system: Pf7G8; assay: [3H]hypoxanthine incorporation growth assay, Pf7G8; assay type: cell-based, Plasmodium falciparum; conditions: Plasmodium falciparum
Protocol: as §1, §2, §3, §4

[3] = target: CDK1/cyclin B; assay: CDK1/cyclin B kinase assay ([γ-33P] ATP, histone H1); assay type: biochemical, starfish; conditions: Table A1; read-out: IC50 on HsCDKs HsCDK1
[4] = test system: DYRK1A; parameters: method as in PMID 17850214; conditions: at 0.1 µM; cited from earlier work
[5] = test system: recombinant PfPK5; parameters: method as in PMID 10722743, PMID 11434907; conditions: cited from earlier work
[6] = test system: Pfmrk; parameters: method as in PMID 10722743, PMID 11434907; conditions: recombinant; cited from earlier work

Work on `CC(C)[C@H](CO)Nc1nc(Nc2cccc(Cl)c2)c2ncn(C(C)C)c2n1` [Compound 2a, purvalanol A, reference compound] yielded an IC50 ([1]; 48 h, read-out: Growth IC50 Pf3D7) of 4.58 µM, an IC50 ([1]; read-out: IC50 on P. falciparum Strains Pf3D7) of 4.58 µM and an IC50 ([2]; 48 h, read-out: Growth IC50 Pf7G8) of 8.12 µM. The IC50 ([2]; read-out: IC50 on P. falciparum Strains Pf7G8) was 8.12 µM, the IC50 [3] was 4 nM and the “remaining DYRK1A kinase activity” value [4] was 88%. The IC50 [5] was 8 µM and the IC50 [6] was 26 µM.
